According to publication PMC1513218 (BMC Pharmacology, 2006):
Where a name gives a salt, the structure may show the parent alone.

Columns and labels:
[1] = target: T1, anthrax lethal factor (LF) protease (Bacillus anthracis, UniProt P15917); test: biochemical; type: biochemical
furin = furin (Homo sapiens, UniProt P09958); test: Furin inhibition, fluorogenic substrate cleavage assay; type: biochemical
[2] = target: botulinum neurotoxin/A (BoNT/A) (Clostridium botulinum, UniProt P0DPI1); test: biochemical; type: biochemical
Sequence of botulinum neurotoxin/A (BoNT/A) (P0DPI1 whole entry, looked up): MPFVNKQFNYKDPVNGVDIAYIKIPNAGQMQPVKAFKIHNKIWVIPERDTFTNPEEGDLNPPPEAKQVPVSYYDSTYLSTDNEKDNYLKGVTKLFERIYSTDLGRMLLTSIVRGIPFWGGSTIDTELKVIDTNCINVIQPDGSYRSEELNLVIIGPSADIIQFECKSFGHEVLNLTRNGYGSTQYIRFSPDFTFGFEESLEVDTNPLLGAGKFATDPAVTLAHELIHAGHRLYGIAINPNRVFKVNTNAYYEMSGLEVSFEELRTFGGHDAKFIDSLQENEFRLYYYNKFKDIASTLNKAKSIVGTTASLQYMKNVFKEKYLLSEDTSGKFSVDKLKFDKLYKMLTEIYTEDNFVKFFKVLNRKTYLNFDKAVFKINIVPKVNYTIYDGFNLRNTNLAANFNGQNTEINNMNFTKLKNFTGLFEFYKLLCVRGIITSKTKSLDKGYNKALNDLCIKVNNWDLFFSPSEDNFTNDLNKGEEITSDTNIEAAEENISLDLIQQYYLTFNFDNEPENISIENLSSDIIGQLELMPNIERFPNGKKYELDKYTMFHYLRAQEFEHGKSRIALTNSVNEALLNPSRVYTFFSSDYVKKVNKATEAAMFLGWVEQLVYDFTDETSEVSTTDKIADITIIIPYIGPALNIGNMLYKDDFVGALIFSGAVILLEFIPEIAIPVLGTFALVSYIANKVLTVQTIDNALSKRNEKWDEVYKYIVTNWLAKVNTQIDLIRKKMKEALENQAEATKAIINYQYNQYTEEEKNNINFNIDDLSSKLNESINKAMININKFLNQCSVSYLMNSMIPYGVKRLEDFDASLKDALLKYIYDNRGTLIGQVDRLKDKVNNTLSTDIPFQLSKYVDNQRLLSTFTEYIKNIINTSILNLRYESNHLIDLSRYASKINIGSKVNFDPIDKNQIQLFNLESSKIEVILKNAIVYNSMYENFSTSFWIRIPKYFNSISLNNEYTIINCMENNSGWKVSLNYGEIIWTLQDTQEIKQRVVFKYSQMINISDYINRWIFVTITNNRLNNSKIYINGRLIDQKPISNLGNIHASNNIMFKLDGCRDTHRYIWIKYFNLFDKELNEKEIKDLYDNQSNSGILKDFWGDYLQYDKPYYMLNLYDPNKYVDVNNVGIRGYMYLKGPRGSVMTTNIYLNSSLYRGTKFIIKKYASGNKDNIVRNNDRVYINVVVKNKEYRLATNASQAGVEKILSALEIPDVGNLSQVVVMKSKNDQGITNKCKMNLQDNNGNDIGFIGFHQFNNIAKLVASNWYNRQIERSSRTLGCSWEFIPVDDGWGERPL

MMP-9 = MMP-9 (Homo sapiens, UniProt P14780); test: biochemical
Sequence of MMP-9 (P14780 94-707, species assumed): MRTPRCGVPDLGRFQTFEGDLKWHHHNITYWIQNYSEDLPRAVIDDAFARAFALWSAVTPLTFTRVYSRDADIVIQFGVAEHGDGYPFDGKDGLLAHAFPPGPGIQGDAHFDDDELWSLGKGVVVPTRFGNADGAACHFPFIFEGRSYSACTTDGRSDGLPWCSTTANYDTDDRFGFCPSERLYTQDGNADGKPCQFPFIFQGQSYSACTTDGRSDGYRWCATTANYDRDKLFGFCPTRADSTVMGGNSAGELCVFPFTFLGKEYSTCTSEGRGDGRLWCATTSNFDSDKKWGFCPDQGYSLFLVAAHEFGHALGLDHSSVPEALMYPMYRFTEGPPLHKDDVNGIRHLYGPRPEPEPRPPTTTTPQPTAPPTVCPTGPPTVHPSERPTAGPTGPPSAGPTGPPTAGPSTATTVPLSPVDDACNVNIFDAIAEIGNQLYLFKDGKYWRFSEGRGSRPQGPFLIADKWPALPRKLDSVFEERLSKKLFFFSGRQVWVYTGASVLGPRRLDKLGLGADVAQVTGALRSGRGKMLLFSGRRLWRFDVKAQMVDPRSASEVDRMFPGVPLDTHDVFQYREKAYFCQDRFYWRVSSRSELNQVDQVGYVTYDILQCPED

[3] = target: T1, anthrax lethal factor (LF) protease; type: biochemical
trypsin = trypsin (Homo sapiens, UniProt P07477); test: biochemical
cathepsin D = cathepsin D (Homo sapiens, UniProt P07339); test: biochemical
Sequence of cathepsin D (P07339 65-412, species assumed): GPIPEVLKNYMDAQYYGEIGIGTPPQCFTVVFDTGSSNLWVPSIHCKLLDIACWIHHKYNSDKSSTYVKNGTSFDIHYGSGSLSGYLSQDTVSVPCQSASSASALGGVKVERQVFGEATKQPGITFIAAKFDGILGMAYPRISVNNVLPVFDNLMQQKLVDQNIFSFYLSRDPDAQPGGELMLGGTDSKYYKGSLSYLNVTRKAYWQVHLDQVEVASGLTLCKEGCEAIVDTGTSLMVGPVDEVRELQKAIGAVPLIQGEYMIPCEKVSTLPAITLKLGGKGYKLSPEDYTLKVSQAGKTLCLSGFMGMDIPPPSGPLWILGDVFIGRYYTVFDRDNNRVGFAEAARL

cathepsin B = cathepsin B (Homo sapiens, UniProt P07858); test: biochemical

T1 sequence (P15917 34-809 limits assumed): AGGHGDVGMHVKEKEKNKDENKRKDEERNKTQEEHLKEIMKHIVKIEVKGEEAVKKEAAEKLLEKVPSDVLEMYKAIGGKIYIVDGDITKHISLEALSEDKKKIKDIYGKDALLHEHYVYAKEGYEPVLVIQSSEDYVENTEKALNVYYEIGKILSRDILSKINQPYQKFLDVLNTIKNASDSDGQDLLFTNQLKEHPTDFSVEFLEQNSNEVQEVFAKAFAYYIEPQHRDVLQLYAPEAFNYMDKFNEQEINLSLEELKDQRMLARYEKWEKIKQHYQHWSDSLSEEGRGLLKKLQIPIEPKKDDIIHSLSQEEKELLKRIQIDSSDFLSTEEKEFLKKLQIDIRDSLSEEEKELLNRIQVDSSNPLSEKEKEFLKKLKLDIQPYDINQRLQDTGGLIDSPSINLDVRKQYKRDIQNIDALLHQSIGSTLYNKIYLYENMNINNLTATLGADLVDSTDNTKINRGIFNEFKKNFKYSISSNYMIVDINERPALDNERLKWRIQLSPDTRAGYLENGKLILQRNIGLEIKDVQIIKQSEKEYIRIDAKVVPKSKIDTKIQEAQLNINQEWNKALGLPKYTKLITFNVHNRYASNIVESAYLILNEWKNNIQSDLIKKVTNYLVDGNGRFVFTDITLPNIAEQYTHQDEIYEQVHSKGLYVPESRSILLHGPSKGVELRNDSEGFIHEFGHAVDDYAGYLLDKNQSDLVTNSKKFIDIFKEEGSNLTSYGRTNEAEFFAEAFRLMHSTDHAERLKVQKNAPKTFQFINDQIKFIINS
Sequence of furin (P09958 108-794): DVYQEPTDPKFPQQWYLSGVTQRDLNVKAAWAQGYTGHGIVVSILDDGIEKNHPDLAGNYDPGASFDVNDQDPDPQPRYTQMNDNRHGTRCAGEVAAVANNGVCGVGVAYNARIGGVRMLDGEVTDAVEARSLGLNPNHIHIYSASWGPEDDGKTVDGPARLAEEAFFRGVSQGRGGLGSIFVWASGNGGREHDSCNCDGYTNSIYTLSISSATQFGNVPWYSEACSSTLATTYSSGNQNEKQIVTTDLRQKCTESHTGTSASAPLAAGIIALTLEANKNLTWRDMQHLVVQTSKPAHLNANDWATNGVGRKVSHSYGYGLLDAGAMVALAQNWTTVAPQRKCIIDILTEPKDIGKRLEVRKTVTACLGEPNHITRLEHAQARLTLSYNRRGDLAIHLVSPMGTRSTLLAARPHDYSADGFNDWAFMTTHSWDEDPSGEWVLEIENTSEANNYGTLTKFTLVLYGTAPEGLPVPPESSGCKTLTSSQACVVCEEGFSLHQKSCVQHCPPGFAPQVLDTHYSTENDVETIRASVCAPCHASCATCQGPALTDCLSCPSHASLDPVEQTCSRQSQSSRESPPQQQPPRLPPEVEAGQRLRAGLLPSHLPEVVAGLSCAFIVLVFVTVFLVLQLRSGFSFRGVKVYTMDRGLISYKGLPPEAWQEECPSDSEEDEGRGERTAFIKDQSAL

| SMILES | Ki [1] | IC50 [2] | Ki (MMP-9) | also measured |
| --- | --- | --- | --- | --- |
| CC(=O)N[C@@H](CCCNC(=N)N)C(=O)N[C@@H](CCCNC(=N)N)C(=O)N[C@@H](CCCNC(=N)N)C(=O)N[C@@H](CCCNC(=N)N)C(=O)N[C@@H](CCCNC(=N)N)C(=O)N[C@@H](CCCNC(=N)N)C(N)=O [Ac-RRRRRR-NH2] | 0.12 µM | – | – | – |
| CC(=O)N[C@@H](CCCNC(=N)N)C(=O)N[C@@H](CCCNC(=N)N)C(=O)N[C@@H](CCCNC(=N)N)C(=O)N[C@@H](CCCNC(=N)N)C(=O)N[C@@H](CCCNC(=N)N)C(=O)N[C@@H](CCCNC(=N)N)C(=O)O [Ac-RRRRRR-OH] | 0.29 ± 0.04 µM | – | – | Ki (furin): 0.05 µM |
| NCC[C@H](O)C(=O)N[C@@H]1C[C@H](N)[C@@H](O[C@H]2O[C@H](CN)[C@@H](O)[C@H](O)[C@H]2O)[C@H](O)[C@H]1O[C@H]1O[C@H](CO)[C@@H](O)[C@H](N)[C@H]1O [Amikacin] | 23.3 µM | > 300 µM | > 300 µM | – |
| CN[C@@H]1[C@@H](O[C@H]2O[C@H](CO)[C@@H](N)[C@H](O)[C@H]2O)OC2C[C@@H](N)[C@@H](O[C@H]3[C@H](O)[C@@H](O)[C@H](N)C[C@@H]3N)OC2[C@@H]1O (stereo partly drawn) [Apramycin] | 111 µM | > 300 µM | > 300 µM | – |
| CNC(=O)[C@H](Cc1c[nH]c2ccccc12)NC(=O)[C@@H](CC(=O)NO)CC(C)C [GM 6001] | 7.2 ± 1.76 µM | > 300 µM | – | – |
| N=C(N)NCCC[C@@H](N)C(=O)N[C@H](CCCNC(=N)N)C(=O)N[C@H](CCCNC(=N)N)C(=O)N[C@H](CCCNC(=N)N)C(=O)N[C@H](CCCNC(=N)N)C(=O)N[C@H](CCCNC(=N)N)C(N)=O [H-(D-Arg)-(D-Arg)-(D-Arg)-(D-Arg)-(D-Arg)-(D-Arg)-NH2] | 0.04 ± 0.02 µM | – | – | Ki (furin): 0.06 µM |
| NC(N)=NCCC[C@H](NC(=O)[C@H](CCCN=C(N)N)NC(=O)[C@H](CCCN=C(N)N)NC(=O)[C@H](CCCN=C(N)N)NC(=O)[C@H](CCCN=C(N)N)NC(=O)[C@@H](N)CCCN=C(N)N)C(=O)O [H-RRRRRR-OH] | 0.24 µM | – | – | Ki (furin): 0.06 µM |
| NC[C@H]1O[C@H](O[C@H]2[C@H](O)[C@@H](O)[C@H](N)C[C@@H]2N)[C@H](N)[C@@H](O)[C@@H]1O [Neamine (free base), Neamine] | 31.1 ± 5.6 µM | 175 µM | > 300 µM | effect of DNA or RNA on concentration-dependent LF inhibitory activity [3]: unaffected by DNA or RNA |
| N=C(N)NC[C@@H]1O[C@H](O[C@H]2[C@@H](O)[C@H](O[C@@H]3[C@@H](O)[C@H](NC(=N)N)C[C@H](NC(=N)N)[C@H]3O[C@H]3O[C@H](CNC(=N)N)[C@@H](O)[C@H](O)[C@H]3NC(=N)N)O[C@@H]2CO)[C@H](NC(=N)N)[C@@H](O)[C@@H]1O [Neomycin B hexaguanyl hexatrifluoroacetate salt] | 0.03 µM | 14 µM | > 170 µM | Ki (furin): 1.5 µM |
| NC[C@@H]1O[C@H](O[C@H]2[C@@H](O)[C@H](O[C@@H]3[C@@H](O)[C@H](N)C[C@H](N)[C@H]3O[C@H]3O[C@H](CN)[C@@H](O)[C@H](O)[C@H]3N)O[C@@H]2CO)[C@H](N)[C@@H](O)[C@@H]1O [Neomycin B tris-sulfate] | 0.71 ± 0.04 µM | 92.5 µM | > 300 µM | right shift in potency as LF inhibitor caused by DNA [3]: ~ 10 fold |
| NCCCCN [Putrescine (1,4-diaminobutane), 1,4-diaminobutane] | > 300 µM | > 300 µM | > 300 µM | – |
| CN[C@@H]1[C@@H](O)[C@@H](O[C@@H]2[C@@H](O)[C@H](O[C@H]3OC(CN)=CC[C@H]3N)[C@@H](N)C[C@H]2N)OC[C@]1(C)O [Sisomicin Sulfate] | 1.8 µM | > 300 µM | > 300 µM | – |
| NCCCCNCCCN [Spermidine] | > 100 µM | 76 µM | – | LF inhibition (in words) [1]: weaker than spermine but were still concentration-dependent inhibitors |
| NCCCNCCCCNCCCN [Spermine, diphosphate salt] | 0.9 ± 0.09 µM | 57 µM | > 300 µM | IC50 (trypsin): > 500 µM; Ki [2]: 46 ± 6 µM; fold weaker as botulinum protease inhibitor than as anthrax LF inhibitor [2]: > 40 fold; effect of DNA or RNA on concentration-dependent LF inhibitory activity [3]: unaffected by DNA or RNA; IC50 (cathepsin D): > 500 µM; IC50 (cathepsin B): > 500 µM |
| N=C(N)NC[C@H]1O[C@H](O[C@H]2[C@H](O)[C@@H](O)[C@H](NC(=N)N)C[C@@H]2NC(=N)N)[C@H](NC(=N)N)[C@@H](O)[C@@H]1O [Tetraguanyl neamine, free base, Tetraguanyl neamine] | 0.3 µM | – | – | – |
| CNC(C)C1CCC(N)C(OC2C(N)CC(N)C(OC3OCC(C)(O)C(NC)C3O)C2O)O1 (stereo not drawn) [gentamicin] | – | – | – | LF inhibition (in words) [1]: inhibited LF enzyme activity |
| NCCC[C@H](N)C(=O)O [ornithine] | – | – | – | LF inhibition (in words) [1]: weaker than spermine but were still concentration-dependent inhibitors |
